Structures can show the parent of a compound that is named as a salt.
target: T1, PPAR-α (Homo sapiens, UniProt Q07869); experiment: Measurement of PPAR-α activity (GAL4 luciferase reporter assay in CV-1 cells); format: cell-based; settings: 100(A/B): A = maximum PPAR-α activity of test compound at 3, 10, 30 and 100 μM, B = activity of the compound of WO/2011/058154 at 100 μM, 18 to 20 hours, read-out: Relative fold induction (%) of PPAR α
T1 construct: expressed in transfected cells; host or cells: CV-1 (African green monkey kidney)
T1 sequence (Q07869 167-468): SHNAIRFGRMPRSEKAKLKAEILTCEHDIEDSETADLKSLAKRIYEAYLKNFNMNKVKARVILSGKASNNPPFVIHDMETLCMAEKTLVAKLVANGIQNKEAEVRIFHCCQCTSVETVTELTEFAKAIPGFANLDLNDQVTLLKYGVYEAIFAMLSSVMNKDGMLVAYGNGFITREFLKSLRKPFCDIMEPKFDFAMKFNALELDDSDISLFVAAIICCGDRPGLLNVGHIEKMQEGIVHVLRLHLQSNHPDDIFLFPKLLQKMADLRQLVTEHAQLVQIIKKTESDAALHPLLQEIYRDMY
Description: The PPAR-α activity was measured according to the published article (THE JOURNAL OF BIOLOGICAL CHEMISTRY Vol. 270, No 0.22: 12953-12956, 1995).
Plasmids used for the PPAR-α activity measurement were constructed as follows. A luciferase expression plasmid (UAS×5-TK-Luc) used was obtained by introducing a sequence in which five yeast GAL4-binding sequences are linked in tandem into a portion upstream of a thymidine kinase promoter of pTAL-Luc (Takara Bio Inc., 6252-1). A PPAR-α receptor expression plasmid (hGR-GAL4-hPPARα) used was obtained by introducing a human GR N-terminal region (1-76aa), a yeast GAL4 DNA-binding region (1-147aa), and a PPARα ligand-binding region (167-468aa) between Not I and Sal I sites of pExchange-1 Core Vector (Invitrogen, 211176).
A reporter assay was conducted by the following method using African green monkey kidney-derived CV-1 cells. The CV-1 cells were seeded in a 96-well plate (Thermo Fisher Scientific K.K., 4938) at 2×10^4 cells/well by using a 10% FBS-containing DMEM (NACALAI TESQUE, INC., 0845874) medium. After culturing under conditions of 37° C. and 5% CO2 for 2 hours, the cells were transfected with the plasmids. The transfection was conducted by using Lipofectamine LTX (Invitrogen, 15338-100) according to the attached manual. The plasmid solution was prepared by adding a mixture solution of the luciferase expression plasmid and the PPAR-α receptor expression plasmid to OPTI-MEM I (Invitrogen, 11058-021). After the transfection, the test compound was added, and the cells were cultured at 37° C. in the presence of 5% CO2 for 18 to 20 hours. After the culturing, the luciferase activity was measured with Luminescensor JNR (ATTO) by using Bright-Glo (Promega, E2620).
The fold induction of PPAR-α by each test compound was calculated by the following method. A relative fold induction (%) of PPAR-α by the test compound was defined as 100 (A/B), where A represents the maximum value of the PPAR-α activities of the test compound at 3 μM, 10 μM, 30 μM, and 100 μM, and B represents the PPAR-α activity of the compound of WO/2011/058154 at 100 μM.

| Compound | Emax [%] |
| --- | --- |
| CSc1cc(F)c(F)cc1-c1ccc(OCc2cccc(C(=O)N(CC(=O)O)Cc3ccccn3)c2)cc1 [Example 20, 2-[[3-[[4-(4,5-Difluoro-2-methylsulfanyl-phenyl)phenoxy]methyl]benzoyl]-(2-pyridylmethyl)amino]acetic Acid Trifluoroacetate] | 13 |
| CSc1cc(F)c(F)cc1-c1ccc(OCc2cccc(C(=O)N(CCC(C)O)CC(=O)O)c2)cc1 (stereo not drawn) [Example 21, 2-[[3-[[4-(4,5-Difluoro-2-methylsulfanyl-phenyl)phenoxy]methyl]benzoyl]-(3-hydroxybutyl)amino]acetic Acid] | 15 |
| CSc1cc(F)c(F)cc1-c1ccc(OCc2cccc(C(=O)N(CC(=O)O)[C@@H](C)C(N)=O)c2)cc1 [Example 22, 2-[[(1S)-2-Amino-1-methyl-2-oxo-ethyl]-[3-[[4-(4,5-difluoro-2-methylsulfanyl-phenyl)phenoxy]methyl]benzoyl]amino]acetic Acid] | 14 |
| COC(C)(C)CN(CC(=O)O)C(=O)c1cccc(COc2ccc(-c3cc(F)c(F)cc3SC)cc2)c1 [Example 23, 2-[[3-[[4-(4,5-Difluoro-2-methylsulfanyl-phenyl)phenoxy]methyl]benzoyl]-(2-methoxy-2-methyl-propyl)amino]acetic Acid] | 22 |
| CCN(CC)CCN(CC(=O)O)C(=O)c1cccc(COc2ccc(-c3cc(F)c(F)cc3SC)cc2)c1 [Example 24, 2-[2-Diethylaminoethyl-[3-[[4-(4,5-difluoro-2-methylsulfanyl-phenyl)phenoxy]methyl]benzoyl]amino]acetic Acid Trifluoroacetate] | 13 |
| CSc1cc(F)c(F)cc1-c1ccc(OCc2cccc(C(=O)N(CC(=O)O)CC(=O)N3CCCC3)c2)cc1 [Example 25, 2-[[3-[[4-(4,5-Difluoro-2-methylsulfanyl-phenyl)phenoxy]methyl]benzoyl]-(2-oxo-2-pyrrolidin-1-yl-ethyl)amino]acetic Acid] | 13 |
| CSc1cc(F)c(F)cc1-c1ccc(OCc2cccc(C(=O)N(CCCN(C)C)CC(=O)O)c2)cc1 [Example 26, 2-[[3-[[4-(4,5-Difluoro-2-methylsulfanyl-phenyl)phenoxy]methyl]benzoyl]-[3-(dimethylamino)propyl]amino]acetic Acid Trifluoroacetate] | 11 |
| CSc1cc(F)c(F)cc1-c1ccc(OCc2cccc(C(=O)N(CC(=O)O)CC(=O)O)c2)cc1 [Example 27, 2-[Carboxymethyl-[3-[[4-(4,5-difluoro-2-methylsulfanyl-phenyl)phenoxy]methyl]benzoyl]amino]acetic Acid] | 10 |
| CNCCN(CC(=O)O)C(=O)c1cccc(COc2ccc(-c3cc(F)c(F)cc3SC)cc2)c1 [Example 28, 2-[[3-[[4-(4,5-Difluoro-2-methylsulfanyl-phenyl)phenoxy]methyl]benzoyl]-[2-(methylamino)ethyl]amino]acetic Acid Trifluoroacetate] | 10 |
| CSc1cc(F)c(F)cc1-c1ccc(OCc2cccc(C(=O)N3C[C@H](O)C[C@H]3C(=O)O)c2)cc1 [Example 29, (2S,4R)-1-[3-[[4-(4,5-Difluoro-2-methylsulfanyl-phenyl)phenoxy]methyl]benzoyl]-4-hydroxy-pyrrolidine-2-carboxylic Acid] | 22 |
| COCCCN(CC(=O)O)C(=O)c1cccc(COc2ccc(-c3cc(F)c(F)cc3SC)cc2)c1 [Example 30, 2-[[3-[[4-(4,5-Difluoro-2-methylsulfanyl-phenyl)phenoxy]methyl]benzoyl]-(3-methoxypropyl)amino]acetic Acid] | 83 |
| CSc1cc(F)c(F)cc1-c1ccc(OCc2cccc(C(=O)N(CCS(C)(=O)=O)CC(=O)O)c2)cc1 [Example 31, 2-[[3-[[4-(4,5-Difluoro-2-methylsulfanyl-phenyl)phenoxy]methyl]benzoyl]-(2-methylsulfonylethyl)amino]acetic Acid] | 8.4 |
| CSc1cc(F)c(F)cc1-c1ccc(OCc2cccc(C(=O)N(CCCS(C)(=O)=O)CC(=O)O)c2)cc1 [Example 32, 2-[[3-[[4-(4,5-Difluoro-2-methylsulfanyl-phenyl)phenoxy]methyl]benzoyl]-(3-methylsulfonylpropyl)amino]acetic Acid] | 7.1 |
| CSc1cc(F)c(F)cc1-c1ccc(OCc2cccc(C(=O)N(CC(=O)O)CC3CCOCC3)c2)cc1 [Example 34, 2-[[3-[[4-(4,5-Difluoro-2-methylsulfanyl-phenyl)phenoxy]methyl]benzoyl]-(tetrahydropyran-4-ylmethyl)amino]acetic Acid] | 7.3 |

Continued, values first:

| Emax [%] | Compound |
| --- | --- |
| 8.5 | CSc1cc(F)c(F)cc1-c1ccc(OCc2cccc(C(=O)N(CC(=O)O)CC3CCNCC3)c2)cc1 [Example 35, 2-[[3-[[4-(4,5-Difluoro-2-methylsulfanyl-phenyl)phenoxy]methyl]benzoyl]-(4-piperidylmethyl)amino]acetic Acid Trifluoroacetate] |
| 8 | CSc1cc(F)c(F)cc1-c1ccc(OCc2cccc(C(=O)N(CC(=O)O)C3CCNCC3)c2)cc1 [Example 36, 2-[[3-[[4-(4,5-Difluoro-2-methylsulfanyl-phenyl)phenoxy]methyl]benzoyl]-(4-piperidyl)amino]acetic Acid Trifluoroacetate] |
| 10 | CSc1cc(F)c(F)cc1-c1ccc(OCc2cccc(C(=O)N(CC(=O)O)CC3CCN(C)CC3)c2)cc1 [Example 37, 2-[[3-[[4-(4,5-Difluoro-2-methylsulfanyl-phenyl)phenoxy]methyl]benzoyl]-[(1-methyl-4-piperidyl)methyl]amino]acetic Acid Trifluoroacetate] |
| 8.9 | CCN1CCC(CN(CC(=O)O)C(=O)c2cccc(COc3ccc(-c4cc(F)c(F)cc4SC)cc3)c2)CC1 [Example 38, 2-[[3-[[4-(4,5-Difluoro-2-methylsulfanyl-phenyl)phenoxy]methyl]benzoyl]-[(1-ethyl-4-piperidyl)methyl]amino]acetic Acid Trifluoroacetate] |
| 22 | CSc1cc(F)c(F)cc1-c1ccc(OCc2cccc(C(=O)N(CC(=O)O)Cc3cccnc3)c2)cc1 [Example 39, 2-[[3-[[4-(4,5-Difluoro-2-methylsulfanyl-phenyl)phenoxy]methyl]benzoyl]-(3-pyridylmethyl)amino]acetic Acid Trifluoroacetate] |
| 9.4 | CSc1cc(F)c(F)cc1-c1ccc(OCc2cccc(C(=O)N(CCN3CCCC3)CC(=O)O)c2)cc1 [Example 40, 2-[[3-[[4-(4,5-Difluoro-2-methylsulfanyl-phenyl)phenoxy]methyl]benzoyl]-(2-pyrrolidin-1-ylethyl)amino]acetic Acid Trifluoroacetate] |
| 12 | CSc1cc(F)c(F)cc1-c1ccc(OCc2cccc(C(=O)N(CCN3CCS(=O)(=O)CC3)CC(=O)O)c2)cc1 [Example 41, 2-[[3-[[4-(4,5-Difluoro-2-methylsulfanyl-phenyl)phenoxy]methyl]benzoyl]-[2-(1,1-dioxo-1,4-thiazinan-4-yl)ethyl]amino]acetic Acid Trifluoroacetate] |
| 13 | CSc1cc(F)c(F)cc1-c1ccc(OCc2cccc(C(=O)N(CC(=O)O)Cc3ncco3)c2)cc1 [Example 42, 2-[[3-[[4-(4,5-Difluoro-2-methylsulfanyl-phenyl)phenoxy]methyl]benzoyl]-(oxazol-2-ylmethyl)amino]acetic Acid] |
| 9 | CCNCCN(CC(=O)O)C(=O)c1cccc(COc2ccc(-c3cc(F)c(F)cc3SC)cc2)c1 [Example 43, 2-[[3-[[4-(4,5-Difluoro-2-methylsulfanyl-phenyl)phenoxy]methyl]benzoyl]-[2-(ethylamino)ethyl]amino]acetic Acid Trifluoroacetate] |
| 25 | CSc1cc(F)c(F)cc1-c1ccc(OCc2cccc(C(=O)N(CCNC(C)=O)CC(=O)O)c2)cc1 [Example 44, 2-[2-Acetamidoethyl-[3-[[4-(4,5-difluoro-2-methylsulfanyl-phenyl)phenoxy]methyl]benzoyl]amino]acetic Acid] |

From patent publication US20160046592A1, “PHARMACEUTICAL COMPOSITION FOR THE TREATMENT OF DIABETES” (Ajinomoto Co., Inc., priority 2013, published 2016)
